Source: paper PMC11215771 (Journal of Medicinal Chemistry, 2024)

Legend:
[1] = target: T1, hBACE1 fused to EGFP or mCherry in HEK293T cells (Homo sapiens, UniProt P56817); assay: Staining of transfected HEK293T cells, confocal imaging: BACE1; format: cell-based; conditions: for staining of BACE1 after preincubation with unconjugated C3: living HEK293T, preincubation with 2 μM C3
T1 construct: expressed in transfected cells; host or cells: HEK293T
Method: (§1) Next, we explored the performance of the new Alexa-C3 compounds in living cells. Because of the rather hydrophilic properties, we exclusively targeted the cell membrane. To prevent intracellular accumulation, we first performed stainings at 4 °C arresting ATP-dependent endocytosis. […] All of the constructs were tagged at the C-terminus with either EGFP or mCherry to visualize subcellular expression. […] With these experiments, we want to exclude that a lack of staining is caused by an impaired accessibility of the protein by Alexa-C3 compounds. […] We then tested samples with BACE1 expression after fixation of the cells with paraformaldehyde (PFA).
(§2) (D) All conjugates were also probed on cells fixed with 4% paraformaldehyde (PFA) for 15 min prior to staining. […] Scale bars represent 5 μm (A–D) and 20 μm (E). […] Samples were excited at 488, 561, and 633 nm, respectively.
(§3) HEK293T cells (ATCC accession number CRL-11268) were maintained in Dulbecco's modified Eagle's medium (Sigma-Aldrich D6046) with 1g/L glucose, supplemented with 10% FCS (Merck) and 1% penicillin/streptomycin (PAA). CHO-K1 cells (ATCC #CCL-61) were maintained in modified phenol red free RPMI-1640 medium (Sigma-Aldrich, R7509), supplemented with 2 mM L-glutamine (Sigma-Aldrich, G7513), and 10% FCS (Merck). Cells were cultured at 37 °C in a 5% CO2 atmosphere. The following plasmids were used for transfection with the amount of DNA indicated (per 35 mm Petri dish): hBACE1 (NM_012104.4), 50 ng for single molecule recordings, 200 ng otherwise; hBACE1 fused to EGFP or mCherry, 75 ng; hBACE1 D289N fused to EGFP or mCherry, 75 ng; hBACE1 D289N, 200–400 ng; hBACE2 (NM_012105.3) fused to EGFP, 75 ng; hCathepsinD (HsCD00438327), Harvard PlasmID, 75 ng. Transfection was performed 24 h after plating using jetPEI (Polyplus) according to the manufacturer’s protocol.
For labeling, we plated HEK293T cells onto sterile 18 mm 1.5H borosilicate coverslips (VWR), coated with poly-D-lysine (Sigma). […] In addition, some cells were also fixed with 4% PFA or permeabilized with HBS + 50 μg/mL of Saponin for 15 min prior to staining as stated in the figure legend. After staining, live cells were washed with HBS twice. Confocal imaging was conducted at room temperature in HBS using the 63× objective and the pinhole set to 1 AU. Confocal imaging was performed 24 h after transfection.

[2] = target: T2, hBACE1 D289N (proteolytic inactive mutant) in HEK293T cells (Homo sapiens, UniProt P56817, D289N); assay: Staining of transfected HEK293T cells, confocal imaging: BACE1 D289N; format: cell-based
T2 construct: expressed in transfected cells; host or cells: HEK293T
T2 sequence (P56817 46-501 D289N): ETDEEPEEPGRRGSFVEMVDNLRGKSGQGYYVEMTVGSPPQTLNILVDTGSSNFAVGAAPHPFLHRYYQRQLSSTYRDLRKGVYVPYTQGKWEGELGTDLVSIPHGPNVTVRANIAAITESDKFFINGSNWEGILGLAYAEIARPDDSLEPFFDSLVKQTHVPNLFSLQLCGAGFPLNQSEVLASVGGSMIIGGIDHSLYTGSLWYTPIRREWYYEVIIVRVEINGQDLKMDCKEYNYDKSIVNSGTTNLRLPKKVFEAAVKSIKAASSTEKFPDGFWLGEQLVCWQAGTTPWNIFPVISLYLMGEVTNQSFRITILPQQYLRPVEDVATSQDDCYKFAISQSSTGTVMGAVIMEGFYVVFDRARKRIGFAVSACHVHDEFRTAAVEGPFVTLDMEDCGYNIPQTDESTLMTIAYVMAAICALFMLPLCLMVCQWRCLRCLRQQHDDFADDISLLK
Method: as §1, §2, §3
For labeling, we plated HEK293T cells onto sterile 18 mm 1.5H borosilicate coverslips (VWR), coated with poly-D-lysine (Sigma). […]

endogenous BACE1 = target: T3, endogenous BACE1 (Mus musculus, UniProt P56818); assay: Staining of endogenous BACE1 in brain slices; conditions: 250 nM probe, BACE1+/+ vs BACE1–/– mice
T3 construct: from tissue; host or cells: mouse brain cryosections (hippocampus, cerebellum), C57BL/6J background, P16
T3 sequence (P56818 46-501): as the sequence (P56817 46-501 D289N) above, with P6S, V162I, L165I, S180T, V182A, N244D, I340V, L393A, Q443H counted along it
Description: Areas with high expression such as the hippocampal MFB[38] or cerebellar Purkinje cells[39],[40] are readily distinguished. However, all primary anti-BACE1 antibodies tested in our lab produced a significant background in samples of BACE1 knockout mice.[20],[23] […] We wondered if our new Alexa-C3 compounds could outperform existing probes in endogenous tissue. […] Close to the hilus, we depicted the MFB additionally at higher magnification (Figure 4B). […] From this set of data and from previous experiments using anti-BACE1 antibodies and SiR-BACE1 we calculated the ratio of the signal in the hilar region to the signal in the molecular layer (Figure 4C), since the molecular layer (red box in Figure 4C) is more affected by background fluorescence due to the relatively low BACE1 expression level.
(A) Images of the hippocampus depict the mossy fiber bundle (MFB) with high BACE1 expression with the intervening CA3 pyramidal cell layer (CA3) and proximal dentate gyrus (DG). […] The scale bar represents 200 μm. […]
For quantification of hippocampal BACE1 staining, mean intensities of the mossy fiber bundle were divided by the mean intensity of the molecular layer of the dentate gyrus. Mean intensities were calculated from rectangular regions of interest. In addition, analysis was performed on images of hippocampal BACE1 labeling with SiR-BACE1 recorded previously.[31]

[3] = target: recombinant human BACE1 protein (amino acids 1–457, extracellular domain) (Homo sapiens, UniProt P56817); assay: Fluorescence correlation spectroscopy (FCS) with BACE1 ECD in solution
recombinant human BACE1 protein (amino acids 1–457, extracellular domain), sequence (P56817 22-457): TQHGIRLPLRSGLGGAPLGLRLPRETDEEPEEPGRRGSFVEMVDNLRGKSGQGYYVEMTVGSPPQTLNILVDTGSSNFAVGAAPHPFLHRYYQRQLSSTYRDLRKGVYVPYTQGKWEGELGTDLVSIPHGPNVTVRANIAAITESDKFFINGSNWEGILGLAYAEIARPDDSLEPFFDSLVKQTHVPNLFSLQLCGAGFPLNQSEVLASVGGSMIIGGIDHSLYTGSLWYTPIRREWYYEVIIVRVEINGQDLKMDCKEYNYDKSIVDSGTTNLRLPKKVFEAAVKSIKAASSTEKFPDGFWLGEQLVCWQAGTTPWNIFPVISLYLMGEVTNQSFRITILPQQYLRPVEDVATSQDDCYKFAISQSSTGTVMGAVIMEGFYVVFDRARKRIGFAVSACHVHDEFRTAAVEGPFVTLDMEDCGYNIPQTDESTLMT

T1 sequence (P56817 46-501): as the sequence (P56817 46-501 D289N) above, with N244D counted along it

Structure (SMILES)	specificity in permeabilized cells ([1]; 50 μg/mL saponin prior to staining, 100 nM probe)	staining of BACE1 after fixation with PFA ([1]; HEK293T fixed with 4% PFA for 15 min prior to staining)	staining of BACE1 after preincubation with unconjugated C3 [1]	staining of BACE1 D289N [2]	labeling of endogenous BACE1 in brain slices (endogenous BACE1)	additional slow diffusing component with BACE1 ECD ([3]; 100 nM probe with BACE1 ECD, pH 5)	EC50 [3]	diffusion time constant of the second (BACE1-bound, slow) population ([3]; 100 nM probe with BACE1 ECD, pH 5, mean ± SEM, n = 3 preparations)
C[C@@H](NC(=O)c1cc(C(=O)N[C@@H](Cc2ccccc2)[C@H](O)CNC2CC2)cc(N(C)S(=O)(=O)CCCNC(=O)CCCCCC2(C)C(/C=C/C=C/C=C3/N(CCCS(=O)(=O)O)c4ccc(S(=O)(=O)O)cc4C3(C)C)=[N+](CCCS(=O)(=O)[O-])c3ccc(S(=O)(=O)O)cc32)c1)c1ccccc1 (some centres unmarked)	the same specificity was observed	did not yield a considerable signal	absence of any staining	not labeled	unsuccessful	no additional slow component was observed	–	–
C[C@@H](NC(=O)c1cc(C(=O)N[C@@H](Cc2ccccc2)[C@H](O)CNC2CC2)cc(N(C)S(=O)(=O)CCCNC(=O)c2ccc(C(=O)O)c(-c3c4ccc(=N)c(S(=O)(=O)O)c-4oc4c(S(=O)(=O)O)c(N)ccc34)c2)c1)c1ccccc1 [2-(6-Amino-3-iminio-4,5-disulfo-3H-xanthen-9-yl)-4-((3-(N-(3-(((2S,3R)-4-(cyclopropylamino)-3-hydroxy-1-phenylbutan-2-yl)carbamoyl)-5-(((R)-1-phenylethyl)carbamoyl)phenyl)-N-methylsulfamoyl)propyl)carbamoyl)benzoate]	–	–	no appreciable fluorescence	no appreciable fluorescence	labeled BACE1 in a typical pattern	–	9.77 nM	310 ± 10 μs
